Measurements from patent publication US10092534B2, “Composition for treating headaches” (BIOHIT OYJ, priority 2012, dated 2018).

How the values were obtained:
[1] = test system: acetaldehyde in the saliva; test: Salivary acetaldehyde during smoking while sucking L-cysteine tablets (gas chromatography of saliva samples); type: in vivo, human; conditions: for average salivary acetaldehyde contents immediately after smoking: five smokers, one cigarette in 5 minutes, placebo 191.2±48.5 μM
Description: Five smokers (of the age of 29±2.8) participated in a study, in which […] were smoked (with cleaning periods in between). While smoking each cigarette (in 5 minutes time), the voluntaries sucked tablets blindfold, containing a placebo, 1.25 mg, 2.5 mg, 5 mg, 10 mg or 20 mg of L-cysteine. The acetaldehyde in the saliva samples was analysed by gas chromatography after 0, 5, 10, 20 minutes from starting to smoke.

acetaldehyde from saliva = test: Elimination of acetaldehyde from saliva during smoking by a cysteine lozenge (FIG. 3); type: in vivo, human; conditions: lozenge containing 5 mg

| Structure (SMILES) | average salivary acetaldehyde contents immediately after smoking ([1]; 5 mg L-cysteine sucking tablet) | inactivation of acetaldehyde in the saliva during smoking ([1]; 5 mg of L-cysteine delivered with a melting tablet) | average salivary acetaldehyde contents immediately after smoking ([1]; 10 mg L-cysteine sucking tablet) | average salivary acetaldehyde contents immediately after smoking ([1]; 20 mg L-cysteine sucking tablet) | reduction of the amount of acetaldehyde compared with the placebo ([1]; L-cysteine tablet of 1.25 mg, saliva, during smoking) | removal of acetaldehyde originating from tobacco from the saliva ([1]; L-cysteine tablets 5 mg, 10 and 20 mg, during smoking, FIG. 1) | elimination of acetaldehyde from saliva during smoking (acetaldehyde from saliva) |
| --- | --- | --- | --- | --- | --- | --- | --- |
| N[C@@H](CS)C(=O)O [L-cysteine] | 0 µM | completely inactivated | 0 µM | 0 µM | about two thirds | removed from the saliva all of the acetaldehyde | totally eliminates acetaldehyde |
| N[C@H](CS)C(=O)O [D-cysteine] | – | – | – | – | – | – | totally eliminates acetaldehyde |
